Data from publication PMC10545747, “Development of cyclopeptide inhibitors of cGAS targeting protein-DNA interaction and phase separation” (Nature Communications, 2023).
Where “and” joins values, the source holds several entries; their conditions need not be identical. Equal values may be shown once. Square brackets hold non-standard residues; d marks the D form. Peptide text beside a SMILES is read from it.

Experiments:
hcGAS-FL and Cy3-ISD = target: T1, hcGAS-FL and Cy3-ISD (Homo sapiens, UniProt Q8N884); assay: In vitro phase separation assay (cGAS-DNA condensates); assay type: biochemical; settings: for Droplets (%), Fig. S6b: hcGAS-FL 100nM, Cy3-ISD 100nM; for Droplets (%), Fig. 4e: hcGAS-FL 500 nM, Cy3-ISD 500 nM; for Droplets (%), Fig. S6d: hcGAS-FL 1 μM, Cy3-ISD 1 μM
T1 construct: The gene encoding full-length human cGAS (hcGAS-FL); 6xHis-SUMO (N, cleaved yes); made in house; host or cells: Escherichia coli BL21 (DE3)
Experimental: Purified hcGAS-FL and Cy3-labeled DNA (Cy3-ISD) with the indicated concentrations were mixed with DMSO (0.1%) or indicated doses of XQ2 in 96-well plates (JingAn Biological) pre-coated with 20 mg/ml BSA (Sigma). Mixtures were incubated in buffer (20 mM Tris-HCl, pH 7.5, 150 mM NaCl and 1 mg/ml BSA) with standing at 37 °C in a total reaction volume of 50 μL. Phase-separated droplets were imaged at the indicated time by using Nikon A1R+ confocal microscope with a 60× oil objective, Nikon A1 camera, and X-Cite 120LED laser. Images were analyzed using FIJI software. The number of droplets was measured as the percentage of the imaging area occupied by Cy3-labeled components, and was plotted using GraphPad Prism 8.

[1] = system: murine fibroblast L929 cells; assay: qPCR of Ifnb1/Cxcl10 mRNA in L929 cells (ISD or HSV-1); assay type: cell-based, mouse; set-up: key to Ifnb1 mRNA (Fig. S2c) / Cxcl10 mRNA (Fig. S2c) / Ifnb1 mRNA (Fig. S2d) / Cxcl10 mRNA (Fig. S2d): mRNA level normalized to GAPDH (relative expression)
Experimental: The indicated cells were stimulated with either ISD (Sangon Biotech), HSV-1 (Provided by Dr. Zhengfan Jiang), HSV60mer (Sangon Biotech), SATE-cddA[70], 2’3’-cGAMP (Invivogen, Cat# tlrl-nacga23-1), ADU-S100 (MedChemExpress, Cat# HY-12885A) or Poly(I:C) (Invivogen, Cat# tlrl-pic) after XQ2 or XQ2B treatment. Total RNA was isolated from indicated cells that incubated with the drugs for indicated time or mice tissues by using NucleoZOL reagent (MACHEREY-NAGEL) according to the manufacturer’s instructions. The quantifications of mRNA levels were carried out by real-time PCR using a PerfectStart® Uni RT&qPCR Kit (TransGen Biotech) on the QuantStudio 5 qPCR machine (Applied Biosystems). Samples were carried out in triplicate and the target CT values were normalized to GAPDH CT values. Primers of qPCR used in this study can be found in Supplementary Table S2. […]
(c) L929, p = 0.0005 (Ifnb1),
BMDMs, p = 0.0001 (Ifnb1), p < 0.0001 (Cxcl10).
representative of three independent experiments in (a-g). (Data are presented as mean ± SD, n = 3 independent
(§1) Source data are provided as a Source Data file.

in vitro = settings: mouse, Cell viability (Fig. S2e)
Experimental: (§2) Cell viability was measured by cell counting kit-8 (TargetMol) according to the manufacturer’s instructions. […]
(§3) (e-g) THP1 cells (e), L929 cells (f) and RAW264.7 cells (g) were exposed to the indicated doses of XQ2 for 48h, the cell viability was measured by CCK8 assay. Data are representative of three independent experiments in (a-g). (Data are presented as mean ± SD, n = 3 independent samples in (a-g), **p < 0.01, ***p < 0.001, ****p < 0.0001 using one-way ANOVA with Dunnett’s post hoc test).
as §1

RAW264.7 cells = assay: in vitro; settings: for Cell viability (Fig. S2e): RAW264.7 (48h)
Experimental: as §2, §3, §1

L929 cells = assay: in vitro; settings: for Cell viability (Fig. S2e): L929 (48h)
Experimental: as §2, §3, §1

hcGAS-FL + FAM-ISD = hcGAS-FL + FAM-ISD (Homo sapiens, UniProt Q8N884); assay: biochemical
Experimental: Purified hcGAS-FL (300 nM) or hcGAS-FL (D191R) (300 nM) and FAM-labeled DNA (FAM-ISD) (40 nM) were incubated with or without XQ2 in buffer (20 mM HEPSE, pH 7.5, 125 mM KCl, 10 mM MgCl2). Samples were dispensed in 30 μ L final volumes per well into a 384-well flat-bottom black plate (Corning 3575). The polarization was detected by a microplate reader (BioTek Synergy H1) with a fluorescence polarization filter cube (excitation wavelength: 485 ± 10 nm; emission wavelength: 528 ± 10 nm) immediately.

[2] = system: cGAS-knockout Hela cells reconstituted with EGFP-hcGAS-FL; assay: Live-cell imaging of cGAS-DNA puncta; assay type: cell-based, human; settings: 10 μM, 4 h
Experimental: cGAS-knockout Hela cells reconstituted with EGFP-tagged full-length human cGAS (EGFP-hcGAS-FL) were obtained by transfecting pEGFP-C2-hcGAS-FL recombinant plasmid, and were seeded into 20-mm glass-bottom cell culture dish (NEST). Cell culture media was replaced with fresh medium for 1 h, then cells were stimulated by transfection of ISD by lipofectamine 2000 (Invitrogen) after DMSO or XQ2 (10 μM) treatment for the indicated time. The cells were rinsed three times with PBS, and live-cell imaging was performed by using Nikon A1R+ confocal microscope with a 40× oil objective, Nikon A1 camera, and X-Cite 120LED laser. Images were analyzed by FIJI software.

T1 sequence (Q8N884 whole entry): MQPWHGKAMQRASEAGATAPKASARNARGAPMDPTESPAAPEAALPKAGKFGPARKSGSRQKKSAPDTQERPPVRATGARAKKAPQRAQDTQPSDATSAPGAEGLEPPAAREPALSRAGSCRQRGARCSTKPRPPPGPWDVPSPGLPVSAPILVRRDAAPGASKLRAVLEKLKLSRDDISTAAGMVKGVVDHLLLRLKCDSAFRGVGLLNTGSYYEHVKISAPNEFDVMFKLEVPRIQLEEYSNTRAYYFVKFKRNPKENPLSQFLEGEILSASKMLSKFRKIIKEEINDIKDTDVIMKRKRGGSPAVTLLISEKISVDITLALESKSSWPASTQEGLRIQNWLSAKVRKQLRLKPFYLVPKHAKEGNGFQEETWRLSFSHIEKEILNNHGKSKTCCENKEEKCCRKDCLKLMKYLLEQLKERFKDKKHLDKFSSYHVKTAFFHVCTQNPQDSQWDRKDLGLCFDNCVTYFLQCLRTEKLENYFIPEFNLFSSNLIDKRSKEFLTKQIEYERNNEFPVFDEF
hcGAS-FL + FAM-ISD, sequence (Q8N884 whole entry): as above

Q: Which “DNA-induced liquid phase condensation of cGAS” value (hcGAS-FL and Cy3-ISD) does the source give for `CC(C)C[C@@H]1NC(=O)[C@H](CCCNC(=N)N)NC(=O)[C@H](C(C)C)NC(=O)[C@@H]2CCCN2C(=O)[C@@H](Cc2ccccc2)NC(=O)[C@H](CC(C)C)NC(=O)[C@H](CCCNC(=N)N)NC(=O)[C@H](C(C)C)NC(=O)[C@H](C)NC(=O)[C@@H](Cc2ccccc2)NC1=O` [XQ2, Cyclo (LfAVRLfPVR)] (cyclo(L[dF]AVRL[dF]PVR)) here?
A: efficiently suppressed DNA-induced liquid phase condensation of cGAS in a dose-dependent manner

Q: What about the “Droplets (%), Fig. S6b” value (hcGAS-FL and Cy3-ISD; XQ2 10 μM) of the same compound?
A: 33.0922% and 37.8074% and 43.9421%

Q: And the “Droplets (%), Fig. S6b” value (hcGAS-FL and Cy3-ISD; XQ2 20 μM)?
A: 10.262% and 16.2032% and 13.5624%

Q: What about the “Droplets (%), Fig. S6b” value (hcGAS-FL and Cy3-ISD; XQ2 40 μM) of the same compound?
A: 8.642% and 8.102% and 4.321%

Q: What about the “Droplets (%), Fig. 4e” value (hcGAS-FL and Cy3-ISD; 30 min 37 °C, XQ2 10 μM) of the same compound?
A: 73.0692% and 66.6865% and 62.8824%

Q: What about the “Droplets (%), Fig. 4e” value (hcGAS-FL and Cy3-ISD; XQ2 20 μM) of the same compound?
A: 40.7983% and 55.7848% and 51.751%

Q: And the “Droplets (%), Fig. 4e” value (hcGAS-FL and Cy3-ISD; XQ2 40 μM)?
A: 25.4542% and 20.5523% and 21.4459%

Q: And the “Droplets (%), Fig. S6d” value (hcGAS-FL and Cy3-ISD; XQ2 10 μM)?
A: 79.2214% and 80.5313% and 77.1189%

Q: What about the “Droplets (%), Fig. S6d” value (hcGAS-FL and Cy3-ISD; XQ2 20 μM) of the same compound?
A: 68.3204% and 65.6495% and 68.2188%

Q: What about the “Droplets (%), Fig. S6d” value (hcGAS-FL and Cy3-ISD; XQ2 40 μM) of the same compound?
A: 48.2853% and 49.5952% and 47.6049%

Q: And the “Ifnb1 and Cxcl10 expression induced by ISD and HSV-1” value ([1]; L929, 10 μM)?
A: significantly inhibited the expression of Ifnb1 and its downstream gene Cxcl10

Q: And the “Cxcl10 mRNA (Fig. S2d)” value ([1]; L929, HSV-1+XQ2)?
A: 14.7732 and 16.7433 and 18.5165

Q: What about the “Ifnb1 mRNA (Fig. S2d)” value ([1]; L929, HSV-1+XQ2) of the same compound?
A: 2.433 and 2.873 and 2.57

Q: And the “Cxcl10 mRNA (Fig. S2c)” value ([1]; L929, ISD+XQ2)?
A: 490.131 and 497.538 and 429.114

Q: What about the “Ifnb1 mRNA (Fig. S2c)” value ([1]; L929, ISD+XQ2) of the same compound?
A: 47.632 and 43.4073 and 39.6029

Q: What about the “Cxcl10 mRNA (Fig. S2c)” value ([1]; L929, XQ2 alone) of the same compound?
A: 1.1537 and 1.297 and 1.725

Q: What about the “Cxcl10 mRNA (Fig. S2d)” value ([1]; L929, XQ2 alone) of the same compound?
A: 1.1537 and 1.297 and 1.725

Q: What about the “Ifnb1 mRNA (Fig. S2c)” value ([1]; L929, XQ2 alone) of the same compound?
A: 1.659 and 1.773 and 1.653

Q: What about the “Ifnb1 mRNA (Fig. S2d)” value ([1]; L929, XQ2 alone) of the same compound?
A: 1.659 and 1.773 and 1.653

Q: What about the viability at 48 h, 0.23 µM (in vitro; L929 cells, L929 (48h), XQ2 0.23 μM) of the same compound?
A: 108%

Q: What about the viability at 48 h, 0.47 µM (in vitro; L929 cells, L929 (48h), XQ2 0.47 μM) of the same compound?
A: 90.1%

Q: And the viability at 48 h, 0.94 µM (in vitro; L929 cells, L929 (48h), XQ2 0.94 μM)?
A: 83.6%

Q: What about the viability at 48 h, 1.88 µM (in vitro; L929 cells, L929 (48h), XQ2 1.88 μM) of the same compound?
A: 85.4%

Q: And the viability at 48 h, 3.75 µM (in vitro; L929 cells, L929 (48h), XQ2 3.75 μM)?
A: 90%

Q: What about the viability at 48 h, 7.5 µM (in vitro; L929 cells, L929 (48h), XQ2 7.5 μM) of the same compound?
A: 93.1%

Q: And the viability at 48 h, 15 µM (in vitro; L929 cells, L929 (48h), XQ2 15 μM)?
A: 86.3%

Q: And the viability at 48 h, 0.16 µM (in vitro; RAW264.7 cells, RAW264.7 (48h), XQ2 0.16 μM)?
A: 100%

Q: What about the viability at 48 h, 0.31 µM (in vitro; RAW264.7 cells, RAW264.7 (48h), XQ2 0.31 μM) of the same compound?
A: 102%

Q: What about the viability at 48 h, 0.63 µM (in vitro; RAW264.7 cells, RAW264.7 (48h), XQ2 0.63 μM) of the same compound?
A: 104%

Q: What about the viability at 48 h, 1.25 µM (in vitro; RAW264.7 cells, RAW264.7 (48h), XQ2 1.25 μM) of the same compound?
A: 104%

Q: What about the viability at 48 h, 2.5 µM (in vitro; RAW264.7 cells, RAW264.7 (48h), XQ2 2.5 μM) of the same compound?
A: 104%

Q: What about the viability at 48 h, 5 µM (in vitro; RAW264.7 cells, RAW264.7 (48h), XQ2 5 μM) of the same compound?
A: 102%

Q: And the viability at 48 h, 10 µM (in vitro; RAW264.7 cells, RAW264.7 (48h), XQ2 10 μM)?
A: 103%

Q: What about the “Cell viability (Fig. S2e)” value (RAW264.7 cells; XQ2 0.16 μM) of the same compound?
A: 99.8864 and 99.6917

Q: And the “Cell viability (Fig. S2e)” value (RAW264.7 cells; XQ2 0.31 μM)?
A: 112.786 and 105.825

Q: And the “Cell viability (Fig. S2e)” value (RAW264.7 cells; XQ2 0.63 μM)?
A: 111.812 and 107.48

Q: What about the “Cell viability (Fig. S2e)” value (RAW264.7 cells; XQ2 1.25 μM) of the same compound?
A: 113.808 and 104.608

Q: What about the “Cell viability (Fig. S2e)” value (RAW264.7 cells; XQ2 2.5 μM) of the same compound?
A: 105.825 and 105.241

Q: What about the “Cell viability (Fig. S2e)” value (RAW264.7 cells; XQ2 5 μM) of the same compound?
A: 107.821 and 104.219

Q: And the “Cell viability (Fig. S2e)” value (RAW264.7 cells; XQ2 10 μM)?
A: 108.843 and 106.117

Q: What about the “cytotoxicity” value (RAW264.7 cells; RAW264.7, 48h) of the same compound?
A: no cytotoxicity

Q: And the “Cell viability (Fig. S2e)” value (L929 cells; XQ2 0.23 μM)?
A: 110.662 and 106.618

Q: What about the “Cell viability (Fig. S2e)” value (L929 cells; XQ2 0.47 μM) of the same compound?
A: 92.2794 and 86.3971

Q: And the “Cell viability (Fig. S2e)” value (L929 cells; XQ2 0.94 μM)?
A: 87.1324 and 89.2157

Q: What about the “Cell viability (Fig. S2e)” value (L929 cells; XQ2 1.88 μM) of the same compound?
A: 84.4363 and 91.299

Q: And the “Cell viability (Fig. S2e)” value (L929 cells; XQ2 3.75 μM)?
A: 94.6078 and 92.0343

Q: And the “Cell viability (Fig. S2e)” value (L929 cells; XQ2 7.5 μM)?
A: 92.2794 and 92.1569

Q: And the “Cell viability (Fig. S2e)” value (L929 cells; XQ2 15 μM)?
A: 85.049 and 94.6078

Q: What about the “cytotoxicity” value (L929 cells; L929, 48h) of the same compound?
A: no cytotoxicity

Q: And the IC50 (hcGAS-FL + FAM-ISD)?
A: 19.2 ± 6.7 µM

Q: What about the “puncta formation of EGFP-cGAS with ISD” value [2] of the same compound?
A: markedly inhibited the puncta formation of EGFP-cGAS with ISD
